Among the data in patent US20230159445A1, “STAT INHIBITORY COMPOUNDS AND COMPOSITIONS” (JANPIX LIMITED, priority 2020, published 2023) are IC50 and half-life values, retold here.

Each structure is given as a SMILES string.

One series deals with MV4-11 cells. Put plainly: MV4-11 Cell Cytotoxicity Assay (CellTiter-Blue, 72 h). The class given is cell-based, human. The conditions noted are these: Homo sapiens, MV4-11; MV-4-11 cells. The method in brief: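 Cells seeded 24 h before treatment, then exposed 72 h at 37° C, 5% CO2 to inhibitors in triplicate, top concentration 50 μM with 1:2 serial dilutions (0.5% DMSO vehicle). Viability read by CellTiter-Blue fluorescence at 560/590 nm after 1 h.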
Broadly, the IC50 is the midpoint of a concentration-inhibition curve. In the case of `CC(C)(C)c1cc(CN(C(=O)CN(Cc2ccccc2N2CCCC2)S(=O)(=O)c2c(F)c(F)c(F)c(F)c2F)c2ccc(C(=O)O)cc2OC2CC2)cc(C2CC2)c1` [Compound 1237, 4-(N-(3-(tert-butyl)-5-cyclopropylbenzyl)-2-(N-(2-(pyrrolidin-1-yl)benzyl)-(2,3,4,5,6-pentafluoro-phenyl)sulfonamido)acetamido)-3-cyclopropoxybenzoic acid], the IC50 lay within 0.316 to 1 µM.
`O=C(O)c1ccc(N(C(=O)CN(Cc2ccccc2C(F)(F)F)S(=O)(=O)c2c(F)c(F)c(F)c(F)c2F)C2CCC2)c(OC2CC2)c1` [Compound 1129, 4-(N-cyclobutyl-2-(N-(2-(trifluoromethyl)benzyl)-(2,3,4,5,6-pentafluoro-phenyl)sulfonamido)acetamido)-3-cyclopropoxybenzoic acid] displayed an IC50 of 3.16 to 100 µM.
For the compound `CC(C)(C)c1cc(CN(C(=O)CN(Cc2ncccc2C(F)(F)F)S(=O)(=O)c2c(F)c(F)c(F)c(F)c2F)c2ccc(C(=O)O)cc2C2CC2)cc(C2CC2)c1` [Compound 1115, 4-(N-(3-(tert-butyl)-5-cyclopropylbenzyl)-2-(N-((3-(trifluoromethyl)pyridin-2-yl)methyl)-(2,3,4,5,6-pentafluoro-phenyl)sulfonamido)acetamido)-3-cyclopropylbenzoic acid], the IC50 fell in the range of 1e-05 to 0.316 µM.
Regarding `CC(C)(C)c1cc(CN(C(=O)CN(Cc2ccc(Cl)cc2)S(=O)(=O)c2c(F)c(F)c(F)c(F)c2F)c2cc(O)cc(O)c2)cc(C2CC2)c1` [Compound 1030, N-(3-(tert-butyl)-5-cyclopropylbenzyl)-2-(N-(4-chlorobenzyl)-(2,3,4,5,6-pentafluorophenyl)sulfonamido)-N-(3,5-dihydroxyphenyl) acetamide], the IC50 was 3.16 to 100 µM.
Compound `COc1cccc(CN(CC(=O)N(Cc2cc(C3CC3)cc(C(C)(C)C)c2)c2ccc(C(=O)O)c(O)c2)S(=O)(=O)c2c(F)c(F)c(F)c(F)c2F)c1` [Compound 1038, 4-(N-(3-(tert-butyl)-5-cyclopropylbenzyl)-2-(N-(3-methoxybenzyl)-(2,3,4,5,6-pentafluoro-phenyl)sulfonamido)acetamido)-2-hydroxybenzoic acid] had an IC50 of 3.16 to 100 µM.
Turning to `CC(C)(C)c1cc(CN(C(=O)CN(Cc2ccccc2F)S(=O)(=O)c2c(F)c(F)c(F)c(F)c2F)c2ccc(C(=O)O)cc2NCCCCl)cc(C2CC2)c1` [Compound 1074, 4-(N-(3-(tert-butyl)-5-cyclopropylbenzyl)-2-(N-(2-fluorobenzyl)-(2,3,4,5,6-pentafluoro-phenyl)sulfonamido)acetamido)-3-((3-chloropropyl)amino) benzoic acid], the IC50 lay within 1 to 3.16 µM.
As to `CC(C)(C)c1cc(CN(C(=O)CN(Cc2ccc(Cl)cc2)S(=O)(=O)c2c(F)c(F)c(F)c(F)c2F)c2ccc(O)c(O)c2)cc(C2CC2)c1` [Compound 1029, N-(3-(tert-butyl)-5-cyclopropylbenzyl)-2-(N-(4-chlorobenzyl)-(2,3,4,5,6-pentafluorophenyl)sulfonamido)-N-(3,4-dihydroxyphenyl) acetamide], the IC50 lay within 3.16 to 100 µM.
As for `COC(=O)C(C)(C)c1ccc(N(Cc2cc(C3CC3)cc(C(C)(C)C)c2)C(=O)CN(Cc2ccc(Cl)cc2)S(=O)(=O)c2c(F)c(F)c(F)c(F)c2F)cc1` [Compound 1042, methyl 2-(4-(N-(3-(tert-butyl)-5-cyclopropylbenzyl)-2-(N-(4-chlorobenzyl)-(2,3,4,5,6-pentafluorophenyl)sulfon-amido)acetamido)phenyl)-2-methylpropanoate], the IC50 fell in the range of 3.16 to 100 µM.
Still for that read-out and setting: for `CC(C)(C)c1cc(CN(C(=O)CN(Cc2cccc(C(F)(F)F)c2)S(=O)(=O)c2c(F)c(F)c(F)c(F)c2F)c2ccc(C(=O)O)cc2OC2CC2)cc(C2CC2)c1` [Compound 1135, 4-(N-(3-(tert-butyl)-5-cyclopropylbenzyl)-2-(N-(3-(trifluoromethyl)benzyl)-(2,3,4,5,6-pentafluoro-phenyl)sulfonamido)acetamido)-3-cyclopropoxybenzoic acid] the value was 0.316 to 1 µM.
As for `CC(C)(C)c1cc(CN(C(=O)CN(Cc2ccccc2O)S(=O)(=O)c2c(F)c(F)c(F)c(F)c2F)c2ccc(C(=O)O)c(O)c2)cc(C2CC2)c1` [Compound 1036, 4-(N-(3-(tert-butyl)-5-cyclopropylbenzyl)-2-(N-(2-hydroxybenzyl)-(2,3,4,5,6-pentafluoro-phenyl)sulfonamido)acetamido)-2-hydroxybenzoic acid], the IC50 was in the range of 1 to 3.16 µM.
For the compound `COc1cc(C(=O)O)ccc1N(Cc1cccc(C(C)(C)C)c1)C(=O)CN(C12CC(C1)C2)S(=O)(=O)c1c(F)c(F)c(F)c(F)c1F` [Compound 1144, 4-(2-(N-(bicyclo[1.1.1]pentan-1-yl)-(2,3,4,5,6-pentafluorophenyl)sulfon-amido)-N-(3-(tert-butyl)benzyl)acetamido)-3-methoxybenzoic acid], the IC50 lay in the range of 0.316 to 1 µM.
On to `CC(C)(C)c1cc(CN(C(=O)CN(Cc2ccc(F)cc2Cl)S(=O)(=O)c2c(F)c(F)c(F)c(F)c2F)c2ccc(C(=O)O)c(C(F)(F)F)c2)cc(C2CC2)c1` [Compound 1229, 4-(N-(3-(tert-butyl)-5-cyclopropylbenzyl)-2-(N-(2-chloro-4-fluorobenzyl)-(2,3,4,5,6-pentafluorophenyl)sulfon-amido)acetamido)-2-(trifluoromethyl) benzoic acid], for which the IC50 is 1 to 3.16 µM.
In turn, `O=C(O)c1ccc(N(Cc2ccccn2)C(=O)CN(Cc2ccccc2C(F)(F)F)S(=O)(=O)c2c(F)c(F)c(F)c(F)c2F)c(OC2CC2)c1` [Compound 1127, 3-cyclopropoxy-4-(2-(N-(2-(trifluoromethyl)benzyl)-(2,3,4,5,6-pentafluoro-phenyl)sulfonamido)-N-(pyridin-2-ylmethyl)acetamido) benzoic acid] registered an IC50 of 1 to 3.16 µM.
In the case of `Cc1cc(C(=O)O)cc(C)c1N(Cc1cc(C2CC2)cc(C2CC2)c1)C(=O)CN(Cc1cnccc1C(F)(F)F)S(=O)(=O)c1c(F)c(F)c(F)c(F)c1F` [Compound 1202, 4-(N-(3,5-dicyclopropylbenzyl)-2-(N-((4-(trifluoromethyl)pyridin-3-yl)methyl)-(2,3,4,5,6-pentafluoro-phenyl)sulfonamido)acetamido)-3,5-dimethylbenzoic acid], the IC50 lay within 0.316 to 1 µM.
On to `O=C(O)c1ccc(N(Cc2cc(OCC3CC3)cc(OCC3CC3)c2)C(=O)CN(Cc2ccc(Cl)cc2)S(=O)(=O)c2c(F)c(F)c(F)c(F)c2F)cc1O` [Compound 1011, 4-(N-(3,5-bis(cyclopropylmethoxy)benzyl)-2-(N-(4-chlorobenzyl)-(2,3,4,5,6-pentafluorophenyl)sulfon-amido)acetamido)-2-hydroxybenzoic acid], for which the IC50 lay in the range of 3.16 to 100 µM.

Staying with this series, now noted: Homo sapiens; MV4-11 cells, 72 h, CellTiter-Blue; read-out: IC50- MV-4-11.
Regarding `O=C(O)c1ccc(N(Cc2cc(OCC(F)(F)F)cc(OCC(F)(F)F)c2)C(=O)CN(Cc2ccc(Cl)cc2)S(=O)(=O)c2c(F)c(F)c(F)c(F)c2F)cc1O` [Compound 2009, 4-(N-(3,5-bis(2,2,2-trifluoroethoxy)benzyl)-2-(N-(4-chlorobenzyl)-(2,3,4,5,6-pentafluorophenyl)sulfon-amido)acetamido)-2-hydroxybenzoic acid], the IC50 fell in the range of 3.16 to 100 µM.
`CC(C)(C)c1cc(N(C(=O)CN(Cc2ccc(Cl)cc2)S(=O)(=O)c2c(F)c(F)c(F)c(F)c2F)c2ccc(C(=O)O)cc2)cc(C(C)(C)C)c1` [Compound 2002, 4-(2-(N-(4-chlorobenzyl)-(2,3,4,5,6-pentafluorophenyl)sulfon-amido)-N-(3,5-di-tert-butylphenyl)acetamido)ben-zoic acid]: the IC50 fell in the range of 0.316 to 1 µM.

The test system of another series is glutathione (GSH). Put plainly: Reactivity Profiling with Glutathione (GSH), half-life by HPLC. The conditions noted are these: 5 mM glutathione (GSH) in IMDM with 10% FBS.
The term half-life denotes the time in which the quantity being followed falls by half. `CC(C)(C)c1cc(CN(C(=O)CN(Cc2ccccc2N2CCCC2)S(=O)(=O)c2c(F)c(F)c(F)c(F)c2F)c2ccc(C(=O)O)cc2OC2CC2)cc(C2CC2)c1` [Compound 1237, 4-(N-(3-(tert-butyl)-5-cyclopropylbenzyl)-2-(N-(2-(pyrrolidin-1-yl)benzyl)-(2,3,4,5,6-pentafluoro-phenyl)sulfonamido)acetamido)-3-cyclopropoxybenzoic acid] showed a half-life at 25 μM of 9.23 to 1670 h.
In turn, `O=C(O)c1ccc(N(C(=O)CN(Cc2ccccc2C(F)(F)F)S(=O)(=O)c2c(F)c(F)c(F)c(F)c2F)C2CCC2)c(OC2CC2)c1` [Compound 1129, 4-(N-cyclobutyl-2-(N-(2-(trifluoromethyl)benzyl)-(2,3,4,5,6-pentafluoro-phenyl)sulfonamido)acetamido)-3-cyclopropoxybenzoic acid] showed a half-life at 25 μM of 2.37 to 4.12 h.
For the compound `CC(C)(C)c1cc(CN(C(=O)CN(Cc2ncccc2C(F)(F)F)S(=O)(=O)c2c(F)c(F)c(F)c(F)c2F)c2ccc(C(=O)O)cc2C2CC2)cc(C2CC2)c1` [Compound 1115, 4-(N-(3-(tert-butyl)-5-cyclopropylbenzyl)-2-(N-((3-(trifluoromethyl)pyridin-2-yl)methyl)-(2,3,4,5,6-pentafluoro-phenyl)sulfonamido)acetamido)-3-cyclopropylbenzoic acid], the half-life at 25 μM was 4.12 to 9.23 h.
The same measure, in the same setting: the figure for `COc1cc(C(=O)O)ccc1N(Cc1cc(C2CC2)cc(C(C)(C)C)c1)C(=O)CN(Cc1ncc(Cl)cc1F)S(=O)(=O)c1c(F)c(F)c(F)c(F)c1F` [Compound 1177, 4-(N-(3-(tert-butyl)-5-cyclopropylbenzyl)-2-(N-((5-chloro-3-fluoropyridin-2-yl)methyl)-(2,3,4,5,6-pentafluorophenyl)sulfon-amido)acetamido)-3-methoxybenzoic acid] is 0.00167 to 2.37 h; for `O=C(O)c1ccc(N(Cc2cccc(N3CCCC3)c2)C(=O)CN(Cc2ncccc2C(F)(F)F)S(=O)(=O)c2c(F)c(F)c(F)c(F)c2F)c(OC2CC2)c1` [Compound 1160, 3-cyclopropoxy-4-(2-(N-((3-(trifluoromethyl)pyridin-2-yl)methyl)-(2,3,4,5,6-pentafluoro-phenyl)sulfonamido)-N-(3-(pyrrolidin-1-yl)benzyl)acetamido) benzoic acid] it is 0.00167 to 2.37 h; for `COc1cc(O)ccc1N(Cc1cc(C2CC2)cc(C(C)(C)C)c1)C(=O)CN(Cc1cnccc1C(F)(F)F)S(=O)(=O)c1c(F)c(F)c(F)c(F)c1F` [Compound 1267, N-(3-(tert-butyl)-5-cyclopropylbenzyl)-N-(4-hydroxy-2-methoxyphenyl)-2-(N-((4-(trifluoromethyl)pyridin-3-yl)methyl)-(2,3,4,5,6-pentafluoro-phenyl)sulfonamido) acetamide] it is 9.23 to 1670 h.
`COc1cc(C(=O)OC(C)C)ccc1N(Cc1cc(C2CC2)cc(C(C)(C)C)c1)C(=O)CN(Cc1cnccc1C(F)(F)F)S(=O)(=O)c1c(F)c(F)c(F)c(F)c1F` [Compound 1172, isopropyl 4-(N-(3-(tert-butyl)-5-cyclopropylbenzyl)-2-(N-((4-(trifluoromethyl)pyridin-3-yl)methyl)-(2,3,4,5,6-pentafluoro-phenyl)sulfonamido)acetamido)-3-methoxybenzoate] had a half-life at 25 μM of 9.23 to 1670 h.
In turn, `O=C(O)c1ccc(N(Cc2cccc(N3CCCC3)c2)C(=O)CN(Cc2cnccc2C(F)(F)F)S(=O)(=O)c2c(F)c(F)c(F)c(F)c2F)c(OC2CC2)c1` [Compound 1159, 3-cyclopropoxy-4-(2-(N-((4-(trifluoromethyl)pyridin-3-yl)methyl)-(2,3,4,5,6-pentafluoro-phenyl)sulfonamido)-N-(3-(pyrrolidin-1-yl)benzyl)acetamido) benzoic acid] had a half-life at 25 μM of 0.00167 to 2.37 h.
